# Results from US20210023234A1, “ECTONUCLEOTIDE PYROPHOSPHATE-PHOSPHODIESTERASE (ENPP) CONJUGATES AND USES THEREOF” (AbbVie Inc., priority 2018, published 2021).
# Assays:
# human ENPP-1 enzyme [1] = biological target: T1, human ENPP-1 enzyme (Homo sapiens, UniProt P22413); assay: ENPP1 Enzyme Assay with cGAMP Substrate (AMP-Glo); assay type: biochemical; conditions: 20 μM 2′3′-cGAMP substrate, 5 ng/well enzyme; for inhibition at 1 µM: 1 uM compound; for inhibition at 10 µM: 10 uM compound
# T1 construct: purchased R&D Systems
# T1 sequence (P22413 1-925): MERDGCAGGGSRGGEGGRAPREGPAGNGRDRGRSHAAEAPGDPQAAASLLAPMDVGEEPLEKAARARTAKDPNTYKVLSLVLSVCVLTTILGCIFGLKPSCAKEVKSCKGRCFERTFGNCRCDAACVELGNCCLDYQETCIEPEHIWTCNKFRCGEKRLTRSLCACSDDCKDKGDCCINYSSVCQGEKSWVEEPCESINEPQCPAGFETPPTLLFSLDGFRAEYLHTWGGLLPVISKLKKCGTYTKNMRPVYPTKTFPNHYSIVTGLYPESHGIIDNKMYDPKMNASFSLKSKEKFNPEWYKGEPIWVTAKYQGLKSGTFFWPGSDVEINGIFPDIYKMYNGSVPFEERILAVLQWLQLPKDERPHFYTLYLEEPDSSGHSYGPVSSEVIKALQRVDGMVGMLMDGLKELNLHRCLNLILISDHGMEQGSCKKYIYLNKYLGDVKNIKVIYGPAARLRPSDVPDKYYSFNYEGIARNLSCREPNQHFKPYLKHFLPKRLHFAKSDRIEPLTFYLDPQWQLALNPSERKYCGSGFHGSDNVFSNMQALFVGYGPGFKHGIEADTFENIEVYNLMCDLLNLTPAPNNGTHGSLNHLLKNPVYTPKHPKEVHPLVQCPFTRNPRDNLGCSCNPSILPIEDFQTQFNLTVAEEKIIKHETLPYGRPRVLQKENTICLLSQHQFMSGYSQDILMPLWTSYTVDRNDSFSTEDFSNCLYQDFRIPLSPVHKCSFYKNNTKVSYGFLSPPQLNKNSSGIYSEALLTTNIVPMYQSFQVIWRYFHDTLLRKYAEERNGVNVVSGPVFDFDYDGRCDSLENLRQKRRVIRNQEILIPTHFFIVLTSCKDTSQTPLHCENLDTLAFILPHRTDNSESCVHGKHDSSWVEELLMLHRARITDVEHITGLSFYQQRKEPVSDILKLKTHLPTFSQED
# Text: ENPP1 Enzyme Assay with cGAMP Substrate:
# Ectonucleotide pyrophosphatase/phosphodiesterase 1 (ENPP-1) is a transmembrane glycoprotein that hydrolyzes nucleotides and nucleotide derivatives with the formation of nucleoside-5′-monophosphates. ENPP-1 hydrolyzes 2′3′-cGAMP (cGAMP), breaking it down into 5′-AMP and 5′-GMP. The 5′-AMP formed from the reaction is detected using the AMP-Glo® Kit (Promega). The assay kit contains two reagents. The first reagent terminates the enzymatic reaction, removes ATP (using adenylyl cyclase), and converts 5′-AMP produced into ADP (using polyphosphate: AMP phosphotransferase). The second reagent converts ADP to ATP (using adenylate kinase) and generates light from ATP using the luciferin/luciferase reaction. The amount of light measured is proportional to the amount of 5′-AMP produced by ENPP1.
# Different concentrations of exemplary ENPP1 inhibitors (synthetic molecules #1-7; see Table 1) were pre-incubated with 5 ng/well of human ENPP-1 enzyme (R&D Systems) for 15 minutes at 37° C. The reaction was initiated by adding 20 μM 2′3′-cGAMP and incubating for 30 minutes at 37° C. The final assay reaction mixture contained a buffer of 50 mM Tris pH 8.0, 250 mM NaCl, 0.5 mM CaCl2, 1 μM ZnCl2 and 1% DMSO. At the end of the incubation, the reaction was stopped by adding 12 μl of AMP-Glo reagent-1 and mixing the reaction uniformly for 5 minutes, followed by incubation at room temperature for one hour. Then 25 μl of AMP Glo reagent-2 was added to the reaction, mixed uniformly with a pipette, and incubated at room temperature for one hour to convert the ADP formed from reagent-1 to ATP and light. The generated light was measured in a Perkin Elmer Victor® instrument. Maximal activity control samples (containing enzyme, substrate, and buffer in the absence of ENPP1 inhibitors: MAX) and background control samples (containing enzyme, substrate, and buffer plus a fully inhibitory concentration (3 μM) of the reference ENPP1 Inhibitor, MV-0000002: MIN) were simultaneously evaluated in order to calculate the percent inhibition at each compound concentration as follows:
# % inhibition=(([MAX−MIN]−[COMPOUND−MIN])/[MAX−MIN])*100
# The IC50 values for percent inhibition versus compound concentration were determined by fitting the inhibition curves using a four-parameter variable slope model in GraphPad Prism® software. Ki values are derived from the IC50 values using the Cheng-Prusoff equation: […]
# human ENPP-1 enzyme [2] = biological target: T1, human ENPP-1 enzyme; assay: ENPP1 Enzyme Assay with TMP-pNP Substrate (absorbance at 405 nm); assay type: biochemical; conditions: read-out: TMP-pNP: % inhibition at 10 uM; 10 uM compound; 200 μM TMP-pNP substrate; 15 ng/well enzyme
# Procedure: ENPP1 Enzyme Assay with TMP-pNP Substrate:
# ENPP-1 hydrolyzes thymidine 5′monophosphate p-nitrophenyl ester (TMP-pNP) to nucleotide-5′-monophosphate and p-nitrophenol, which is a chromogenic product. The amount of p-nitrophenol product formed is measured using its absorbance at 405 nm, which is directly proportional to enzyme activity. Different concentrations of inhibitors (synthetic molecules #1-7; see Table 1) were pre-incubated with 15 ng/well of human ENPP-1 enzyme (R&D Systems) for 15 minutes at 37° C. The reaction was initiated by adding 200 μM TMP-pNP and incubating for 10 minutes at 37° C. […] The amount of product formed was measured directly ina Tecan® spectrophotometer. Maximal activity control samples (containing enzyme, substrate, and buffer in the absence of ENPP1 inhibitors: MAX) and background control samples (containing enzyme, substrate, and buffer plus a fully inhibitory concentration (3 μM) of the reference ENPP1 Inhibitor, MV-0000002: MIN) are simultaneously evaluated in order to calculate the percent inhibition at each compound concentration as follows: […]
# The IC50 values for percent inhibition versus compound concentration were determined by fitting the inhibition curves (percent inhibition versus inhibitor concentration) using a four-parameter variable slope model in GraphPad Prism® software. […]
inhibition at 1 µM (human ENPP-1 enzyme [1]) [%],inhibition at 10 µM (human ENPP-1 enzyme [2]) [%],inhibition at 10 µM (human ENPP-1 enzyme [1]) [%],SMILES
≥ 75,≥ 75,,"COc1cc2ncc(C(N)=O)c(N3CCC(CCNS(N)(=O)=O)CC3)c2cc1OC [compound 2, 6,7-dimethoxy-4-(4-(2-(sulfamoylamino)ethyl)piperidin-1-yl)quinoline-3-carboxamide]"
,,≥ 75,"Cn1ncc2c(N3CCC(CCNS(N)(=O)=O)CC3)ncnc21 [compound 3, N-(2-(1-(1-methyl-1H-pyrazolo[3,4-d]pyrimidin-4-yl)piperidin-4-yl)ethyl)sulfonic amide]"
,≥ 75,≥ 75,"COc1cc2ncnc(N3CCC4(CC3)CN(S(N)(=O)=O)C4)c2cc1OC [compound 5, 7-(6,7-dimethoxyquinazolin-4-yl)-2,7-diazaspiro[3.5]nonane-2-sulfonamide]"
≥ 75,,,"COc1cc2ncnc(N3CCc4c(cccc4S(N)(=O)=O)C3)c2cc1OC [compound 6, 2-(6,7-dimethoxyquinazolin-4-yl)-1,2,3,4-tetrahydroisoquinoline-5-sulfonamide]"
,,≥ 75,"COc1cc2ncnc(NCCc3cccc(NS(N)(=O)=O)c3)c2cc1OC [compound 7, N-(3-(2-((6,7-dimethoxyquinazolin-4-yl)amino)ethyl)phenyl)sulfonic amide]"
